Test results taken from publication PMC10374545, “A small molecule inhibitor of PTP1B and PTPN2 enhances T cell anti-tumor immunity” (Nature Communications, 2023).
Values joined by “and” are separate entries in the source; they are usually repeats but may differ in a detail not shown here. Equal values may be shown once.

Columns and labels:
OT-I CD8+ T cells [1] = assay: T cell activation assay (CD25, CD69 by flow cytometry); assay type: cell-based, mouse; conditions: for CD25, group mean (Mean 2) / CD69, group mean (Mean 2): Fig. 2A; for CD25 (MFI), single replicates / CD69 (MFI), single replicates: N4 1 nM, 1 μM, 48 h, Fig. 2A raw data
Description: The cell surface markers CD8, CD25, and CD69 were analyzed using fluorophore-conjugated antibodies by flow cytometry.

OT-I CD8+ T cells [2] = assay: Intracellular IFNγ, TNF and Granzyme B in activated OT-I T cells; assay type: cell-based, mouse; parameters: Grzmb, single replicates / IFN TNF, single replicates / IFN TNF, column mean / Grzmb, difference between medians: Actual / Grzmb, difference between medians: Hodges-Lehmann / IFN TNF, group mean (Mean 2): unit not given here; conditions: for IFN TNF, group mean (Mean 2): N 6
Description: Single-cell suspensions from spleens and lymph nodes were obtained as described previously. For the detection of intracellular cytokines and granzyme B, T cells were fixed and permeabilized with the BD Cytofix/Cytoperm kit according to the manufacturer’s instructions. Briefly, T cells were first surface stained with fluorophore-conjugated antibodies and then fixed followed by permeabilization on ice for 20 min. Fixed and permeabilized cells were stained for IFN-γ, TNF, and granzyme B for 45 min at room temperature. For the detection of intracellular FoxP3 the Foxp3/Transcription Factor Staining Buffer Set (eBioscience) was used according to the manufacturer’s instructions. Briefly, cells were fixed and permeabilized for 1 h on ice followed by intracellular staining at room temperature for 45 min. For the detection of serum cytokines, the BD CBA Mouse Inflammation Kit™ was used according to the manufacturers’ instructions.
For the detection of intracellular IFNγ, TNF and Granzyme B, single-cell suspensions were obtained from lymph nodes of wild type (OT-I;Ptpn2^fl/fl) or PTPN2-deficient (OT-I;Lck-Cre;Ptpn2^fl/fl) mice and stimulated with 1 nM N4 peptide for 16 h and rested in complete T cell media supplemented with IL-2 (5 ng/ml) and IL-7 (0.2 ng/ml) for 2 days. […] Cells were then stained with fluorophore-conjugated antibodies to cell surface CD8 and intracellular IFNγ, TNF, and Granzyme B and analyzed by flow cytometry.

[3] = system: STAT-5 Y694 phosphorylation in NK cells; assay: IL-15-induced p-STAT-5 in NK cells; assay type: cell-based, mouse; conditions: 0.1 or 1 (µM in figure, µg/ml in legend)
Description: (§1) proliferation in vitro. a-b) NK cells from C57BL/6 male mice (n=3 per group) were expanded […]
(§2) µg/ml) or vehicle (1% v/v DMSO) in the absence of IL-15. a) NK cells were re-stimulated for 15 min with the indicated amounts of IL-15 and Y694 phosphorylated STAT-5 (p-STAT-5) mean fluorescence intensities (MFIs) determined by flow cytometry. b) Alternatively, NK cells were stained with carboxyfluorescein succinimidyl ester (CFSE, Invitrogen) and then re-stimulated with the indicated amounts of IL-15 for 96 h and NK cell proliferation (CFSE dilution) monitored by flow cytometry. c-d) NK cells from C57BL/6 male mice (n=3 per group) were expanded ex vivo in the presence of IL-15 and then pre-treated with CMP-182 (0.1 or 1 µg/ml) or vehicle in the absence of IL-15. NK cells were re-stimulated with either IL-12 (10 ng/ml) or IL-18 (100 ng/ml) or with α-NK1.1 or α-Ly49H for 4 h. NK cells were maintained in 10 ng/ml IL-15 throughout the 4 h incubation time. Percentages of c) IFN-γ+ and d) CD107A+ NK cells were determined by flow cytometry. In (a-d) results shown are means ± SEM and are representative of at least two independent experiments.

NK cells = assay: NK cell proliferation (CFSE dilution); assay type: cell-based, mouse; conditions: IL-15, 96 h; 0.1 or 1 (µM in figure, µg/ml in legend)
Description: as §1, §2

AT3-OVA mammary tumors [4] = assay: AT3-OVA tumor growth in Rag1-/- mice; assay type: in vivo, mouse; parameters: key to Tumour growth: tumour size in mm^2 (two-dimensional caliper measurement); Tumour weights: unit not given here; conditions: for Tumour size RAG1, mean: in mm2
Description: (§3) Male or female mice were injected subcutaneously with 5 × 10^5 MC38 tumor cells resuspended in 100 μl D-PBS into the flank. Alternatively, female mice were injected orthotopically with 5 × 10^5 AT3 or AT3-OVA or PTPN2-deleted AT3 or AT3-OVA tumor cells resuspended in 20 μl D-PBS into the fourth mammary fat pad. Tumor sizes were measured in two dimensions (mm^2) using electronic callipers two to three times per week as soon as tumors were palpable (20–25 mm^2).

AT3-OVA mammary tumors [5] = assay: AT3-OVA tumor growth in Lck-Cre;Ptpn2fl/fl mice; assay type: in vivo, mouse; parameters: key to Tumour growth: tumour size in mm^2 (two-dimensional caliper measurement); conditions: for Tumour growth: AT3-OVA tumours, individual mice (Figure 7A)
Description: as §3

[6] = Lck-Cre;Ptpn2fl/fl (2K) OT-I cells, listed as 2KI
[7] = wild type OT-I cells + inhibitor, n 6
[8] = wild type OT-I cells, listed as WTI
[9] = N4 1nM, 1 μM, Fig. 2B raw data, listed as CMP-182

Structure (SMILES): CC(C)(O)CCOc1ccc2cc(O)c(N3CC(=O)NS3(=O)=O)c(F)c2c1 [Compound 182, 5-(1-Fluoro-3-hydroxy-7-(3-hydroxy-3-methylbutoxy)naphthalen-2-yl)−1,2,5-thiadiazolidin-3-one 1,1-dioxide]
- CD25, group mean (Mean 2) (OT-I CD8+ T cells [1]; 2K OT-I cells + inhibitor, n 4): 49238
- CD69, group mean (Mean 2) (OT-I CD8+ T cells [1]; 2K OT-I cells + inhibitor, n 4): 3065
- CD25 (MFI), single replicates (OT-I CD8+ T cells [1]; [6]): 50690 and 58145 and 42341 and 45775
- CD69 (MFI), single replicates (OT-I CD8+ T cells [1]; [6]): 3049 and 3660 and 3360 and 2191
- antigen-induced activation of CD8+ T cells (CD25, CD69) (OT-I CD8+ T cells [1]; OT-I cells, SIINFEKL (N4)): enhanced
- CD25, group mean (Mean 2) (OT-I CD8+ T cells [1]; [7]): 43739
- CD69, group mean (Mean 2) (OT-I CD8+ T cells [1]; [7]): 2723
- CD25 (MFI), single replicates (OT-I CD8+ T cells [1]; [8]): 44120 and 42537 and 42315 and 46694 and 45914 and 40851
- CD69 (MFI), single replicates (OT-I CD8+ T cells [1]; [8]): 2509 and 2213 and 3486 and 2750 and 2693 and 2686
- Grzmb, difference between medians: Actual (OT-I CD8+ T cells [2]; CMP-182 vs. DMSO, N4, Fig. 2B): 672.5
- Grzmb, difference between medians: Hodges-Lehmann (OT-I CD8+ T cells [2]; CMP-182 vs. DMSO, N4, Fig. 2B): 741.5
- Grzmb, single replicates (OT-I CD8+ T cells [2]; [9]): 3755 and 3056 and 3282 and 3899 and 3113 and 2884
- IFN TNF, single replicates (OT-I CD8+ T cells [2]; [9]): 32.6 and 31.1 and 31 and 36.2 and 30.7 and 32.8
- IFN TNF, group mean (Mean 2) (OT-I CD8+ T cells [2]; N4 1nM, Fig. 2B): 32.4
- Grzmb, median of column B (OT-I CD8+ T cells [2]; N4, n=6, Fig. 2B): 3198, n=6
- expression of Granzyme B, IFNγ and TNF (OT-I CD8+ T cells [2]; OT-I CD8+ T cells): increased expression
- IFN TNF, single replicates (OT-I CD8+ T cells [2]; Vehicle (no N4), 1 μM, Fig. 2B raw data, listed as CMP-182): 0.038 and 0.03 and 0.037 and 0.066 and 0.023 (2×)
- IFN TNF, group mean (Mean 2) (OT-I CD8+ T cells [2]; Vehicle (no N4), Fig. 2B): 0.03617
- IFN TNF, column mean (OT-I CD8+ T cells [2]; mean over Vehicle and N4 1nM rows, two-way ANOVA, Fig. 2B): 16.22
- IL-15-induced p-STAT-5 in NK cells [3]: did not enhance
- NK cell proliferation (NK cells): did not enhance
- AT3-OVA mammary tumor growth in Rag1-/- mice (AT3-OVA mammary tumors [4]; 10 mg/kg i.v., mice lack T and B cells): no effect
- Tumour growth (AT3-OVA mammary tumors [4]; Figure 6E, RAG1 mice, n=6, individual animals, day 9 post injection, listed as CMP-182): 7.7488 and 14.8962 and 11.224 and 3.9597 and 9.447 and 12.6224
- Tumour growth (AT3-OVA mammary tumors [4]; Figure 6E, RAG1 mice, n=6, individual animals, day 11 post injection, listed as CMP-182): 19.6245 and 35.0523 and 26.8632 and 16.6934 and 15.0024 and 31.8592
- Tumour growth (AT3-OVA mammary tumors [4]; Figure 6E, RAG1 mice, n=6, individual animals, day 14 post injection, listed as CMP-182): 31.9081 and 32.6823 and 36.7674 and 25.1923 and 36.3137 and 48.8592
- Tumour growth (AT3-OVA mammary tumors [4]; Figure 6E, RAG1 mice, n=6, individual animals, day 16 post injection, listed as CMP-182): 59.5752 and 89.2808 and 73.4616 and 57.4821 and 68.9011 and 83.2686
- Tumour growth (AT3-OVA mammary tumors [4]; Figure 6E, RAG1 mice, n=6, individual animals, day 18 post injection, listed as CMP-182): 74.7088 and 110.046 and 88.7004 and 79.0656 and 57.8454 and 92.4255
- Tumour growth (AT3-OVA mammary tumors [4]; Figure 6E, RAG1 mice, n=6, individual animals, day 21 post injection, listed as CMP-182): 75.82 and 124.872 and 109.74 and 89.0525 and 89.04 and 103.68
- Tumour growth (AT3-OVA mammary tumors [4]; Figure 6E, RAG1 mice, n=6, individual animals, day 23 post injection, listed as CMP-182): 84.728 and 134.64 (3×) and 89.0525 and 133.35
- Tumour growth (AT3-OVA mammary tumors [4]; Figure 6E, RAG1 mice, n=6, individual animals, day 25 post injection, listed as CMP-182): 88 and 156.6 and 126.72 and 89.0525 and 186.66 and 168.74
- Tumour weights (AT3-OVA mammary tumors [4]; Figure 6E, RAG1 mice, n=6, individual animals, listed as CMP-182): 270 and 560 and 890 and 220 and 490 and 330
- TUMOR WEIGHTS RAG1, median (AT3-OVA mammary tumors [4]; RAG1 mice, column B (Data Set-B), n=6, Figure 6E): 410.0, n=6
- Tumour size RAG1, mean over all time points (column mean) (AT3-OVA mammary tumors [4]; RAG1 mice, n=6, Figure 6E, mean of 8 time points): 72.3 mm2
- Tumour size RAG1, mean (AT3-OVA mammary tumors [4]; RAG1 mice, n=6, time point 9, Figure 6E): 9.983
- Tumour size RAG1, mean (AT3-OVA mammary tumors [4]; RAG1 mice, n=6, time point 11, Figure 6E): 24.18
- Tumour size RAG1, mean (AT3-OVA mammary tumors [4]; RAG1 mice, n=6, time point 14, Figure 6E): 35.29
- Tumour size RAG1, mean (AT3-OVA mammary tumors [4]; RAG1 mice, n=6, time point 16, Figure 6E): 71.99
- Tumour size RAG1, mean (AT3-OVA mammary tumors [4]; RAG1 mice, n=6, time point 18, Figure 6E): 83.8
- Tumour size RAG1, mean (AT3-OVA mammary tumors [4]; RAG1 mice, n=6, time point 21, Figure 6E): 98.7
- Tumour size RAG1, mean (AT3-OVA mammary tumors [4]; RAG1 mice, n=6, time point 23, Figure 6E): 118.5
- Tumour size RAG1, mean (AT3-OVA mammary tumors [4]; RAG1 mice, n=6, time point 25, Figure 6E): 136
- growth of AT3-OVA tumors in Lck-Cre;Ptpn2fl/fl mice (AT3-OVA mammary tumors [5]; 10 mg/kg i.v., effects modest): additionally repressed the growth
- Tumour growth (AT3-OVA mammary tumors [5]; Lck-Cre;Ptpn2fl/fl mice n=6, day 7 post injection, listed as CMP-182): 39.6 and 38.4 and 28.91 and 24.91 and 14.4 and 25
- Tumour growth (AT3-OVA mammary tumors [5]; Lck-Cre;Ptpn2fl/fl mice n=6, day 9 post injection, listed as CMP-182): 40.2 and 33 and 27.36 and 24.44 and 20.64 and 28.6
- Tumour growth (AT3-OVA mammary tumors [5]; Lck-Cre;Ptpn2fl/fl mice n=6, day 11 post injection, listed as CMP-182): 40.8 and 26.46 and 22.5 and 19.89 and 25.38 and 17.64
- Tumour growth (AT3-OVA mammary tumors [5]; Lck-Cre;Ptpn2fl/fl mice n=6, day 13 post injection, listed as CMP-182): 44.8 and 30.25 and 16 and 20.25 and 29.64 and 25.38
- Tumour growth (AT3-OVA mammary tumors [5]; Lck-Cre;Ptpn2fl/fl mice n=6, day 16 post injection, listed as CMP-182): 44.16 and 40.92 and 16 and 18.9 and 20.68 and 31.11
- Tumour growth (AT3-OVA mammary tumors [5]; Lck-Cre;Ptpn2fl/fl mice n=6, day 19 post injection, listed as CMP-182): 38.94 and 25 and 15.2 and 25.92 and 33.48 and 38.34
- Tumour growth (AT3-OVA mammary tumors [5]; Lck-Cre;Ptpn2fl/fl mice n=6, day 22 post injection, listed as CMP-182): 38.94 and 28.08 and 25.08 and 22.36 and 21 and 35
- Tumour weights (AT3-OVA mammary tumors [5]; Lck-Cre;Ptpn2fl/fl mice n=6, individual mice (Figure 7B), listed as CMP-182, in mg (unit assumed)): 123 and 76 and 120 and 82 and 67 and 156
